molecular target: T1, METTL16 MTD–U6 snRNA Δ interaction (Homo sapiens, UniProt Q86W50); assay: FP assay with Cy5-labeled U6 snRNA Δ; type: binding; conditions: not given
T1 construct: METTL16 MTD (1–291) was subcloned to pOPINB plasmid; His tag followed by HRV 3C cleavage site (N, cleaved yes); made in house; host or cells: E. coli Rosetta (DE3)
T1 sequence (Q86W50 1-291): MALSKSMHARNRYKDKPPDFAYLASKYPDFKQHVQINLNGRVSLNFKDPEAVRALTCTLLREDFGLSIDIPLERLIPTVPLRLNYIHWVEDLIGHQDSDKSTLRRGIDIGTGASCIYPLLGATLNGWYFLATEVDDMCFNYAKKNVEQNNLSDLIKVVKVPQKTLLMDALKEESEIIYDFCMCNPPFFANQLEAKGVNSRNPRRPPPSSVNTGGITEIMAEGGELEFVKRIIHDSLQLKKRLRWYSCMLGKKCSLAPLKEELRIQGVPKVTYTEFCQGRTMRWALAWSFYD

SMILES | IC50 [µM]
CN1C(=O)C(=C2SC(NS(=O)(=O)c3cccc(C(=O)O)c3)=NC2=O)c2cc(Br)ccc21 [Compound 49] | 5.3

molecular target: T2, METTL16–MAT2A-hp1 mRNA interaction (METTL16 MTD 1–291, FAM-labeled MAT2A-hp1 RNA) (Homo sapiens, UniProt Q86W50); assay: Fluorescence polarization (FP) assay, disruption of METTL16 binding to FAM-MAT2A-hp1 RNA; conditions: not given
T2 sequence (Q86W50 1-291): T1 sequence (Q86W50 1-291)

SMILES | IC50 [µM]
COc1ccc(S(=O)(=O)NC2=NC(=O)C(=C3C(=O)Nc4c(F)cccc43)S2)cc1 [Compound 11] | 28.9 ± 5.8
COc1ccc(S(=O)(=O)NC2=NC(=O)C(=Cc3cc4ccccc4[nH]3)S2)cc1 [Compound 18] | 23.2 ± 2.7
O=C1N=C(NS(=O)(=O)c2ccc(F)cc2Cl)SC1=C1C(=O)Nc2ccc(Cl)cc21 [Compound 24] | 14 ± 1.5
CS(=O)(=O)NC1=NC(=O)C(=C2C(=O)Nc3ccc(Cl)cc32)S1 [Compound 29] | 36.2 ± 2.8
COc1ccc(S(=O)(=O)NC2=NC(=O)C(=C3C(=O)Nc4ccc(OC)cc43)S2)cc1 [Compound 3] | 23.8 ± 5.5
O=C1N=C(NS(=O)(=O)c2ccc(C(F)(F)F)cc2)SC1=C1C(=O)Nc2ccc(Cl)cc21 [Compound 30] | 13.6 ± 3.6
COc1ccc(S(=O)(=O)NC2=NC(=O)C(=C3C(=O)Nc4ccc(F)cc43)S2)cc1 [Compound 13] | 26.9 ± 3.5
COc1ccc(S(=O)(=O)NC2=NC(=O)C(=C3C(=O)Nc4c(Cl)cccc43)S2)cc1 [Compound 14] | 57.6 ± 1.3
CN1C(=O)C(=C2SC(NS(=O)(=O)c3cccc(C(=O)O)c3)=NC2=O)c2cc(Br)ccc21 [Compound 49] | 3
O=C1N=C(NS(=O)(=O)c2ccccc2)SC1=C1C(=O)Nc2ccc(Cl)cc21 [Compound 20] | 15.7 ± 1.6
O=C1N=C(NS(=O)(=O)c2ccc(F)cc2)SC1=C1C(=O)Nc2ccc(Cl)cc21 [Compound 33] | 30.4 ± 10.5
COc1ccc(S(=O)(=O)NC2=NC(=O)C(=C3C(=O)N(C)c4ccc(F)cc43)S2)cc1 [Compound 16] | 15 ± 1
O=C1N=C(NS(=O)(=O)c2cccc([N+](=O)[O-])c2)SC1=C1C(=O)Nc2ccc(Cl)cc21 [Compound 22] | 12 ± 2
COc1ccc(S(=O)(=O)NC2=NC(=O)C(=C3C(=O)Nc4ccc(C)cc43)S2)cc1 [Compound 2] | 24.3 ± 5.3
COc1ccc(S(=O)(=O)NC2=NC(=O)C(=C3C(=O)Nc4ccc([N+](=O)[O-])cc43)S2)cc1 [Compound 4] | 8.2 ± 0.76
Cc1ccc(S(=O)(=O)NC2=NC(=O)C(=C3C(=O)Nc4ccc(Cl)cc43)S2)cc1 [Compound 19] | 13.5 ± 1.7
COc1ccc(S(=O)(=O)NC2=NC(=O)C(=C3C(=O)Nc4cc(Cl)ccc43)S2)cc1 [Compound 15] | 26.4 ± 5
COc1ccc(S(=O)(=O)NC2=NC(=O)C(=C3C(=O)Nc4ccc(Br)cc43)S2)cc1 [Compound 8] | 12.4 ± 2.8
COc1ccc(S(=O)(=O)NC2=NC(=O)C(=C3C(=O)N(C)c4cc(F)ccc43)S2)cc1 [Compound 17] | 22.8 ± 2.3
O=C1N=C(NS(=O)(=O)c2ccc3ccccc3c2)SC1=C1C(=O)Nc2ccc(Cl)cc21 [Compound 31] | 9.9 ± 1.3
COC(=O)c1ccc(S(=O)(=O)NC2=NC(=O)C(=C3C(=O)N(C)c4ccc(Br)cc43)S2)cc1 [Compound 48] | 29.4 ± 7.5
O=C1CSC(NS(=O)(=O)c2ccccc2)=N1 [Compound Ia] | > 100

same assay, conditions: 50 nM METTL16 MTD, 5 nM FAM-MAT2A-hp1; given as 'inactive'

SMILES | IC50 class in the FP assay (MAT2A-hp1)
CC(C)(C)c1ccc(S(=O)(=O)NC2=NC(=O)C(=C3C(=O)Nc4ccc(Cl)cc43)S2)cc1 [Compound 23] | inactive
O=C1N=C(NS(=O)(=O)c2ccc(C3CCCCC3)cc2)SC1=C1C(=O)Nc2ccc(Cl)cc21 [Compound 25] | inactive
COc1ccc(S(=O)(=O)NC2=NC(=O)C(=C3C(=O)Nc4ccc(Cl)cc43)O2)cc1 [Compound 38] | inactive
Cc1ccc(C(=O)NC2=NC(=O)C(=C3C(=O)Nc4ccc(Cl)cc43)S2)cc1 [Compound 34] | inactive
O=C1N=C(NC(=O)c2ccc(F)cc2)SC1=C1C(=O)Nc2ccc(Cl)cc21 [Compound 37] | inactive
COc1ccc(C(=O)NC2=NC(=O)C(=C3C(=O)Nc4ccc(Cl)cc43)S2)cc1 [Compound 35] | inactive
COc1ccc(S(=O)(=O)NC2=NC(=O)C(=C3C(=O)Nc4cc(F)ccc43)S2)cc1 [Compound 12] | inactive
COc1ccc(S(=O)(=O)NC2=NC(=O)C(=C3C(=O)N(c4ccccc4)c4ccccc43)S2)cc1 [Compound 10] | inactive
O=C1N=C(NS(=O)(=O)c2ccc(-c3ccccc3)cc2)SC1=C1C(=O)Nc2ccc(Cl)cc21 [Compound 26] | inactive
COc1ccc(C(=O)NC2=NC(=O)C(=C3C(=O)Nc4ccc(Cl)cc43)S2)cc1OC [Compound 36] | inactive
O=C1CSC(NS(=O)(=O)c2ccccc2)=N1 [Compound Ia] | inactive

same assay, conditions: 42 compared to compound 4; methyl ester 48 compared to the carboxylic acid analogue

SMILES | fold decrease in inhibitory activity (FP assay) [fold]
COC(=O)c1ccc(S(=O)(=O)NC2=NC(=O)C(=C3C(=O)N(C)c4ccc(Br)cc43)S2)cc1 [Compound 48] | 20

same assay, conditions: FAM-MAT2A-hp1 RNA

SMILES | inhibitory activity against METTL16 in the FP assay, in words
COc1ccc(S(=O)(=O)NC2=NC(=O)C(=C3C(=O)Nc4ccc(Cl)cc43)O2)cc1 [Compound 38] | did not show inhibitory activity
